Data reported in patent US8853242B2, “Nitrogenous-ring acylguanidine derivative” (Astellas Pharma Inc., priority 2009, dated 2014).
Structures can show the parent of a compound that is named as a salt.

Biological target: human 5-HT5A receptor (Homo sapiens (Human), UniProt P47898)
Test: Test on a human 5-HT5A receptor binding inhibition ([3H]5-CT)
Details: membrane from HEK293 cells expressing human 5-HT5A receptor, Ki calculated from IC50
Protocol: The ORF (open reading frame; protein coding region) of a human 5-HT5A receptor (Genbank AF498985) was cloned from a human hippocampus cDNA library, and then inserted into a pCR2.1 vector (Invitrogen), and Escherichia coli containing the plasmid was cultured in a large amount. Next, the full-length cDNA sequence of the human 5-HT5A receptor was analyzed, and recombined into a pCDNA3.1 vector (Invitrogen) as an expression vector and cultured in a large amount. HEK293 established cells (ATCC) derived from the human fetal kidney were seeded, the expression plasmid (1 μg) obtained above were added thereto with LIPOFECTAMINE 2000 (Invitrogen; 2 μl), the gene was transfected into HEK293 cells, and the expression cells were screened with a drug-resistant marker, Geneticin (G418 sulfate 500 μg/ml; Kanto Chemical Co., Inc.). Thus prepared recombinant cells which expressed the gene were cultured in a medium containing D-MEM (Dulbecco's modified eagle medium, Sigma), 10% FCS (Fetal calf serum: fetal bovine serum), 1% Pc./Sm (Penicillin/Streptomycin, Invitrogen), and 500 μg/ml G418 for 3 days. These experimental operations followed a manual for gene operation experiment and an instruction appended in a reagent, and the like, such as a known method (Sambrook, J. et al, Molecular Cloning-A Laboratory Manual”, Cold Spring Harabor laboratory, NY, 1989).
HEK293 cells for forced expressions of a human 5-HT5A receptor were cultured in a F500 plate, and scraped with a scraper. After centrifugation, the precipitate was collected, and an incubation buffer (50 mM Tris (HCl) (pH 7.4), 10 mM MgSO4, and 0.5 mM EDTA (ethylenediamine tetraacetic acid)) was added thereto. After homogenization, it was further centrifuged, and the incubation buffer was added to the precipitate, followed by thoroughly suspending. The operation was repeated, and protein concentration was measured, thereby completing preparation of the membrane.
A solution of the compound to be tested and 100 μM 5-CT (5-carboxamidetriptamine) in DMSO was added to a 96-well plate at 2 μl/well, suspended in an incubation buffer, and a membrane from HEK293 cells for forced expressions of a human 5-HT5A receptor prepared at 200 μg/ml was added at 100 μl/well. After incubation at room temperature for 15 minutes, a [^3H]5-CT solution (2 nM [^3H]5-CT, incubation buffer) was added thereto at 100 μl/well.
Separately, 100 μl of the solution was distributed into a liquid scintillation vial, and 2 ml of Aquasol II (registered trademark) was added thereto, followed by stirring. Then, radioactivity was measured by a liquid scintillation counter. It was incubated at 37° C. for 60 minutes. The reaction mixture was sucked into 96-well GF/C filter plate that had been pre-treated with 0.2% polyethyleneimine, and washed six times with an ice-cooled, 50 mM Tris (pH 7.5) buffer. The GF/C filter plate was dried.
Microscint TMPS (registered trademark) was added thereto at 40 μl/well. Radioactivity remaining on the GF/C filter plate was measured by a top counter.
The [^3H]5-CT binding inhibiting activity by the compound to be tested in each experiment was determined as an IC50 value with a radioactivity upon addition of DMSO alone being 0% inhibition, and a radioactivity upon addition of 1 μM 5-CT being 100% inhibition. Separately, Ki values were calculated from the Kd value of the [^3H]5-CT determined from Scatchard analysis, by the following equation. Ki=IC50(1+Concentraion of ligand added/Kd(4.95 nM))

human 5-HT5A receptor, sequence (P47898 whole entry): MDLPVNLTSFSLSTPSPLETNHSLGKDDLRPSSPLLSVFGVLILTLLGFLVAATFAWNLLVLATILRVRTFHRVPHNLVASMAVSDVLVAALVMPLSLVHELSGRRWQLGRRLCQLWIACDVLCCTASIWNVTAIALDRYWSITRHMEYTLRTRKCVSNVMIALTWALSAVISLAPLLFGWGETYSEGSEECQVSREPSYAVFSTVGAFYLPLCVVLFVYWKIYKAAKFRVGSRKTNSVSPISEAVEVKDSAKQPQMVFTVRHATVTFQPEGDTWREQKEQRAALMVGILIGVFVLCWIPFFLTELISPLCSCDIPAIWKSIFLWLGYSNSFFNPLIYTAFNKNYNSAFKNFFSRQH

SMILES	Ki ([3H]5-CT binding) [nM]	Ki ([3H]5-CT binding inhibition) [nM]
NC(N)=NC(=O)c1ccc2ccnc(-c3c(F)cc(F)cc3F)c2c1 [Example 1, N-(diaminomethylene)-1-(2,4,6-trifluorophenyl)isoquinoline-7-carboxamide dihydrochloride]	1 to 10	
NC(N)=NC(=O)c1ccc2c(CO)cnc(-c3c(F)cc(F)cc3F)c2c1 [Example 2, N-(diaminomethylene)-4-(hydroxymethyl)-1-(2,4,6-trifluorophenyl)isoquinoline-7-carboxamide fumarate]	10 to 100	
CN/C(N)=N/C(=O)c1ccc2nccc(-c3c(F)cc(F)cc3F)c2c1 [Example 3, N-[1-amino(methylamino)methylene]-4-(2,4,6-trifluorophenyl)quinoline-6-carboxamide dihydrochloride]	1 to 10	
NC(N)=NC(=O)c1ccc2nccc(-c3ccccc3)c2c1 [Example 4]	10 to 100	
NC(N)=NC(=O)c1ccc2nccc(-c3c(F)cccc3Cl)c2c1 [Example 11]	1 to 10	
N#Cc1ccccc1-c1ccnc2ccc(C(=O)N=C(N)N)cc12 [Example 12]	100 to 300	
NC(N)=NC(=O)c1ccc2nccc(-c3cc(Cl)ccc3Cl)c2c1 [Example 18]	10 to 100	
NC(N)=NC(=O)c1ccc2nccc(-c3c(Cl)cccc3Cl)c2c1 [Example 19]	1 to 10	
NC(N)=NC(=O)c1ccc2nccc(-c3cc(Cl)ccc3F)c2c1 [Example 22]	10 to 100	
NC(N)=NC(=O)c1ccc2nccc(-c3cc(C(F)(F)F)ccc3F)c2c1 [Example 25]	10 to 100	
NC(N)=NC(=O)c1ccc2nccc(-c3c(Cl)cc(Cl)cc3Cl)c2c1 [Example 27]	1 to 10	
NC(N)=NC(=O)c1ccc2nccc(-c3cccc(C(F)(F)F)c3F)c2c1 [Example 28]	10 to 100	
NC(=O)c1cc(-c2c(F)cc(F)cc2F)c2cc(C(=O)N=C(N)N)ccc2n1 [Example 30]	10 to 100	
N#Cc1ccc(-c2ccnc3ccc(C(=O)N=C(N)N)cc23)cc1 [Example 33]	10 to 100	
COc1cc(C#N)ccc1-c1ccnc2ccc(C(=O)N=C(N)N)cc12 [Example 36]	10 to 100	
NC(N)=NC(=O)c1ccc2nccc(-c3ccc(F)c(C(F)(F)F)c3)c2c1 [Example 37]	100 to 300	
Cc1cc(C(=O)N=C(N)N)cc2c(-c3c(F)cc(F)cc3F)ccnc12 [Example 39]	1 to 10	
Cc1cc(C(=O)N=C(N)N)cc2c(-c3c(F)cccc3F)ccnc12 [Example 42]	1 to 10	
NC(N)=NC(=O)c1cc(Cl)c2nccc(-c3c(F)cc(F)cc3F)c2c1 [Example 43]	10 to 100	

More lines, now with the values ahead:

Ki ([3H]5-CT binding) [nM]	Ki ([3H]5-CT binding inhibition) [nM]	SMILES
1 to 10		NC(N)=NC(=O)c1ccc2nccc(-c3c(F)cc(F)cc3F)c2c1 [Example 5]
10 to 100	13	Cc1cc(-c2c(F)cc(F)cc2F)c2cc(C(=O)N=C(N)N)ccc2n1 [Example 6]
10 to 100		Cc1cc(-c2c(F)cccc2Cl)c2cc(C(=O)N=C(N)N)ccc2n1 [Example 7]
1 to 10		NC(N)=NC(=O)c1ccc2nccc(-c3c(F)cc(F)cc3Cl)c2c1 [Example 8]
1 to 10		NC(N)=NC(=O)c1ccc2nccc(-c3c(F)cc(Cl)cc3F)c2c1 [Example 13]
10 to 100		NC(N)=NC(=O)c1ccc2nccc(-c3ccc(Cl)cc3F)c2c1 [Example 14]
1 to 10		NC(N)=NC(=O)c1ccc2nccc(-c3ccc(F)cc3Cl)c2c1 [Example 15]
1 to 10		Cc1cnc2ccc(C(=O)N=C(N)N)cc2c1-c1c(F)cc(F)cc1F [Example 17]
10 to 100		NC(N)=NC(=O)c1ccc2nccc(-c3cc(Cl)c(F)cc3F)c2c1 [Example 20]
1 to 10		Cc1cnc2ccc(C(=O)N=C(N)N)cc2c1-c1c(F)cc(F)cc1Cl [Example 23]
1 to 10		Cc1cnc2ccc(C(=O)N=C(N)N)cc2c1-c1cccc(Cl)c1Cl [Example 24]
1 to 10		Cc1cnc2ccc(C(=O)N=C(N)N)cc2c1-c1ccc(F)cc1F [Example 31]
1 to 10		Cc1cnc2ccc(C(=O)N=C(N)N)cc2c1-c1c(F)cccc1F [Example 32]
1 to 10		Cc1cc(C(=O)N=C(N)N)cc2c(-c3ccc(F)cc3F)ccnc12 [Example 44]
